Results: ChEMBL document CHEMBL1201862, “PubChem BioAssay data set” (2004)
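Cultured in 96-well plates, cells were exposed to test compound for 48 hours across five concentrations. GI50 is the concentration that inhibits growth by half.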 Activity calls are given as the source filed them. Rule as the data show it: active = GI50 up to about 1.1 µM and inactive = higher.

Assays:
Assay in all cases: NCI-60 cell line screen, 48 h
T47D = system: T47D
TK-10 = system: TK-10
UACC-62 = system: UACC-62
HCT-15 = system: HCT-15
SK-OV-3 = system: SK-OV-3
K562 = system: K562
PC-3 = system: PC-3
SF-539 = system: SF-539
A498 = system: A498
UO-31 = system: UO-31
EKVX = system: EKVX
HCT-116 = system: HCT-116
UACC-257 = system: UACC-257
SN12C = system: SN12C
ACHN = system: ACHN
SW-620 = system: SW-620
KM12 = system: KM12
CCRF-CEM = system: CCRF-CEM
RXF 393 = system: RXF 393
RPMI-8226 = system: RPMI-8226
HOP-92 = system: HOP-92
OVCAR-8 = system: OVCAR-8
OVCAR-5 = system: OVCAR-5
OVCAR-3 = system: OVCAR-3
MDA-MB-231 = system: MDA-MB-231
Malme-3M = system: Malme-3M
HOP-62 = system: HOP-62
MDA-N = system: MDA-N
786-0 = system: 786-0
NCI-H460 = system: NCI-H460
NCI-H226 = system: NCI-H226
COLO 205 = system: COLO 205
MOLT-4 = system: MOLT-4
NCI-H23 = system: NCI-H23
SK-MEL-2 = system: SK-MEL-2
SR = system: SR
NCI/ADR-RES = system: NCI/ADR-RES
LOX IMVI = system: LOX IMVI
NCI-H522 = system: NCI-H522
CAKI-1 = system: CAKI-1
SNB-75 = system: SNB-75
BT-549 = system: BT-549
HL-60 = system: HL-60
SK-MEL-5 = system: SK-MEL-5
MDA-MB-435 = system: MDA-MB-435
A549 = system: A549
SK-MEL-28 = system: SK-MEL-28
Hs-578T = system: Hs-578T
SF-295 = system: SF-295
SF-268 = system: SF-268
HCC 2998 = system: HCC 2998
M14 = system: M14
U-251 = system: U-251
MCF7 = system: MCF7
OVCAR-4 = system: OVCAR-4
DU-145 = system: DU-145
HT-29 = system: HT-29
IGROV-1 = system: IGROV-1
SNB-19 = system: SNB-19

Structure (SMILES): C=C1C(=O)O[C@@H]2C[C@]3(C)CC[C@]4(C)[C@H](CC[C@@H]5[C@@]6(C)CCC(=O)C(C)(C)[C@@H]6CC[C@]54C)[C@H]3[C@H]12 [OCHRACEOLIDE A]
- GI50 (T47D): 10.6 µM (inactive)
- GI50 (TK-10): 16 µM (inactive)
- GI50 (UACC-62): 16.9 µM (inactive)
- GI50 (HCT-15): 12.5 µM
- GI50 (SK-OV-3): 24 µM (inactive)
- GI50 (K562): 4.45 µM (inactive)
- GI50 (PC-3): 14.7 µM (inactive)
- GI50 (SF-539): 21.7 µM (inactive)
- GI50 (A498): 21 µM (inactive)
- GI50 (UO-31): 14.8 µM (inactive)
- GI50 (EKVX): 19 µM (inactive)
- GI50 (HCT-116): 13.6 µM (inactive)
- GI50 (UACC-257): 14.6 µM (inactive)
- GI50 (SN12C): 17.5 µM (inactive)
- GI50 (ACHN): 11.9 µM (inactive)
- GI50 (SW-620): 11.6 µM (inactive)
- GI50 (KM12): 19.2 µM (inactive)
- GI50 (CCRF-CEM): 2.43 µM (inactive)
- GI50 (RXF 393): 16.6 µM (inactive)
- GI50 (RPMI-8226): 2.1 µM (inactive)
- GI50 (HOP-92): 9.31 µM (inactive)
- GI50 (OVCAR-8): 13.7 µM (inactive)
- GI50 (OVCAR-5): 18.4 µM (inactive)
- GI50 (OVCAR-3): 17.3 µM (inactive)
- GI50 (MDA-MB-231): 24.7 µM (inactive)
- GI50 (Malme-3M): 15.8 µM (inactive)
- GI50 (HOP-62): 23.5 µM (inactive)
- GI50 (MDA-N): 15.3 µM (inactive)
- GI50 (786-0): 13.7 µM (inactive)
- GI50 (NCI-H460): 18.5 µM (inactive)
- GI50 (NCI-H226): 20 µM (inactive)
- GI50 (COLO 205): 7.19 µM (inactive)
- GI50 (MOLT-4): 2.31 µM (inactive)
- GI50 (NCI-H23): 23.7 µM (inactive)
- GI50 (SK-MEL-2): 22.4 µM (inactive)
- GI50 (SR): 14.9 µM (inactive)
- GI50 (NCI/ADR-RES): 22.2 µM (inactive)
- GI50 (LOX IMVI): 15.2 µM (inactive)
- GI50 (NCI-H522): 7.33 µM (inactive)
- GI50 (CAKI-1): 13.1 µM (inactive)
- GI50 (SNB-75): 20.7 µM (inactive)
- GI50 (BT-549): 16.1 µM (inactive)
- GI50 (HL-60): 1.63 µM (inactive)
- GI50 (SK-MEL-5): 12.5 µM (inactive)
- GI50 (MDA-MB-435): 11.2 µM (inactive)
- GI50 (A549): 22.2 µM (inactive)
- GI50 (SK-MEL-28): 18.9 µM (inactive)
- GI50 (Hs-578T): 31.6 µM (inactive)
- GI50 (SF-295): 17.8 µM (inactive)
- GI50 (SF-268): 22.2 µM (inactive)
- GI50 (HCC 2998): 19.2 µM (inactive)
- GI50 (M14): 14.6 µM (inactive)
- GI50 (U-251): 19 µM (inactive)
- GI50 (MCF7): 4.81 µM (inactive)
- GI50 (OVCAR-4): 18.3 µM (inactive)
- GI50 (DU-145): 17.9 µM (inactive)
- GI50 (HT-29): 20.6 µM (inactive)
- GI50 (IGROV-1): 18.7 µM (inactive)
- GI50 (SNB-19): 26.9 µM (inactive)

Structure (SMILES): O=c1n(-c2ccc(Cl)c(Cl)c2)c(=O)n(-c2ccc(Cl)c(Cl)c2)c(=O)n1-c1ccc(Cl)c(Cl)c1
- GI50 (T47D): 1.57 µM (inactive)
- GI50 (TK-10): 5.53 µM (inactive)
- GI50 (UACC-62): 4.27 µM (inactive)
- GI50 (HCT-15): 1.58 µM
- GI50 (SK-OV-3): 2.11 µM (inactive)
- GI50 (K562): 2.06 µM (inactive)
- GI50 (PC-3): 0.703 µM (active)
- GI50 (SF-539): 0.769 µM (active)
- GI50 (A498): 2.73 µM (inactive)
- GI50 (UO-31): 2.76 µM (inactive)
- GI50 (EKVX): 3.5 µM (inactive)
- GI50 (HCT-116): 1.2 µM (inactive)
- GI50 (UACC-257): 0.736 µM (active)
- GI50 (SN12C): 3.09 µM (inactive)
- GI50 (ACHN): 2.39 µM (inactive)
- GI50 (SW-620): 3.15 µM (inactive)
- GI50 (KM12): 2.91 µM (inactive)
- GI50 (CCRF-CEM): 1.15 µM (inactive)
- GI50 (RXF 393): 3.21 µM (inactive)
- GI50 (RPMI-8226): 0.558 µM (active)
- GI50 (HOP-92): 0.0144 µM (active)
- GI50 (OVCAR-8): 3.54 µM (inactive)
- GI50 (OVCAR-5): 3.63 µM (inactive)
- GI50 (OVCAR-3): 2.99 µM (inactive)
- GI50 (MDA-MB-231): 1.8 µM (inactive)
- GI50 (Malme-3M): 3.3 µM (inactive)
- GI50 (HOP-62): 3.67 µM (inactive)
- GI50 (MDA-N): 2.9 µM (inactive)
- GI50 (786-0): 2.78 µM (inactive)
- GI50 (NCI-H460): 1.59 µM (inactive)
- GI50 (NCI-H226): 2.82 µM (inactive)
- GI50 (COLO 205): 0.719 µM (active)
- GI50 (MOLT-4): 1.87 µM (inactive)
- GI50 (NCI-H23): 1.5 µM (inactive)
- GI50 (SK-MEL-2): 2.15 µM (inactive)
- GI50 (SR): 3.55 µM (inactive)
- GI50 (NCI/ADR-RES): 3.1 µM (inactive)
- GI50 (LOX IMVI): 2.55 µM (inactive)
- GI50 (NCI-H522): 3.52 µM (inactive)
- GI50 (CAKI-1): 3.49 µM (inactive)
- GI50 (SNB-75): 2.53 µM (inactive)
- GI50 (BT-549): 2.88 µM (inactive)
- GI50 (HL-60): 2.89 µM (inactive)
- GI50 (SK-MEL-5): 1.9 µM (inactive)
- GI50 (MDA-MB-435): 3.93 µM (inactive)
- GI50 (A549): 2.09 µM (inactive)
- GI50 (SK-MEL-28): 4.16 µM (inactive)
- GI50 (Hs-578T): 2.96 µM (inactive)
- GI50 (SF-295): 2.47 µM (inactive)
- GI50 (SF-268): 2.45 µM (inactive)
- GI50 (HCC 2998): 2.2 µM (inactive)
- GI50 (M14): 3.2 µM (inactive)
- GI50 (U-251): 3.71 µM (inactive)
- GI50 (MCF7): 1.82 µM (inactive)
- GI50 (OVCAR-4): 3.94 µM (inactive)
- GI50 (DU-145): 4.01 µM (inactive)
- GI50 (HT-29): 2.59 µM (inactive)
- GI50 (IGROV-1): 3.21 µM (inactive)
- GI50 (SNB-19): 5.01 µM (inactive)
